Key:
IKKα = biological target: T1, IKKα (Homo sapiens, UniProt O15111); test: activity and selectivity in cells; assay type: cell-based
T1 sequence (O15111 1-745): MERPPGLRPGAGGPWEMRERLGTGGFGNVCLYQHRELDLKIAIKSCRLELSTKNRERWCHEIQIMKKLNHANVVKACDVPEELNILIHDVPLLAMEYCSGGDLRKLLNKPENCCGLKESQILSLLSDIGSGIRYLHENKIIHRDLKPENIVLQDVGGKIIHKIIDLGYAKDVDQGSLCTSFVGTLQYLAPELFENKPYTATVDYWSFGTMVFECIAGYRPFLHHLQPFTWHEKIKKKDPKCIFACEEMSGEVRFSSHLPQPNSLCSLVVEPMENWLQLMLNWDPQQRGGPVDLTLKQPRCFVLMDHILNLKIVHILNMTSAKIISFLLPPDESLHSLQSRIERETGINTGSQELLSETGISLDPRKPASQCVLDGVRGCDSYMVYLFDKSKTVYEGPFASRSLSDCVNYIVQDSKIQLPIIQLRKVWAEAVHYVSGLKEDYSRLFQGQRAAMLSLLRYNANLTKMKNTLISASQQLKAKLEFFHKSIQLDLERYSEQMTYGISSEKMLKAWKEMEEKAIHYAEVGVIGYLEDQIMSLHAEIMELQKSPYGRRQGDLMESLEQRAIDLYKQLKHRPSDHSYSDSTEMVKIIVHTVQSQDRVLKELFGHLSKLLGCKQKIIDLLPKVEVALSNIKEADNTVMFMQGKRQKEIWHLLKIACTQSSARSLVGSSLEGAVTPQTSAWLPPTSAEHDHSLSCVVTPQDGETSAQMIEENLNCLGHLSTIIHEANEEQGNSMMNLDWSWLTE

IKKα over IKKβ = test: selectivity for IKKα over IKKβ from the kinase assay; assay type: biochemical
Excerpt: To examine the pyrrolo[2,3 -b]pyridines as an alternative scaffold, we adopted the AIPP core because it had similar dimensions to 1 SU909, with HBD/HBA motifs positioned at the scaffold extremities to interact with both the hinge region and the G-loop wall of IKKα, a rationale we had previously proposed as the basis for imparting selectivity. A preliminary set of AIPP derivatives was designed to explore its utility as an IKK-targeting scaffold, whilst incorporating additional functionality through which to introduce selectivity for the IKKα isoform (2-4 SU1087, SU1266 and SU1253; FIG. 3). This was achieved by initially adopting two different approaches: either appending a hydrophobic moiety to the pyrrolo[2,3 -b]pyridine motif as a fused form to afford the tricyclic derivatives 2 and 3 SU1266 and SU1087, or as a phenyl substituent to introduce flexibility with the central pyrrolo[2,3 -b]pyridine moiety in 4 SU1253 . […] The pyrrolo[2,3 -b]pyridine was bound to the hinge region in the classical HBA/HBD motif with the GK+3 NH and C═O backbone, whilst the aminoindazole projected towards the top of the pocket to interact with the G-loop (FIG. 4A). […] In both isoforms, the 2 -phenyl moiety was oriented out from the hinge towards the exposed solvent area.
To shift the selectivity profile towards IKKα, we selected 4 SU1253 for structural optimization based on the notion that sigma-bond rotation between the phenyl ring and the pyrrolo[2,3 -b]pyridine would inbuild the flexibility required to engage with the three dimensional array of residues nearby to exploit differences between the two isoforms. Furthermore, this would enable the inclusion of moieties that could also project into solvent and address solubility considerations. Small groups (NH2, OH, OMe, OEt and F) were initially introduced into the phenyl ring to evaluate their impact on the selectivity profile against both IKKs (5 a-g SU1354 -SU1373, Table 2 ). Our goal was to achieve a 1:50 selectivity ratio of IKKα to IKKβ, with a minimum IKKβ inhibitory Ki of 500 nM.

Turbidimetric solubility = assay type: physicochemical
mouse hepatocytes = test: mouse hepatocyte clearance (cryopreserved pooled mouse CD1 hepatocytes); assay type: in vitro ADME; details: mouse hepatocytes
Protocol: Pharmacokinetic studies were contracted to Sygnature Discovery Limited. Intrinsic clearance and half life were determined using cryopreserved pooled mouse CD1 hepatocytes. Test compounds were analysed at 1 μM in Williams Media E buffer (0.01 % DMSO) at a cell density of 0.5×10^6 cells mL^−1 . Cells were incubated at 37° C. for one hour with shaking and compound depletion was measured by LC-MS/MS at six timepoints (0.25, 5, 10, 20, 40, and 60 minutes).

[1] = in vivo murine PK in CD1 mice; set-up: species or system mouse; details: 10 mg/kg, mean
Protocol: […] Prior formulation/solubility assessment was performed in routine excipients e.g., DMSO: cyclodextrin or HMPC/Tween 80 . Intravenous time points were taken at 5 min, 15 min, 30 min, 1, 2, 4, 8, and 24 hours and intraperitoneal time points were taken at 15 min, 30 min, 1, 2, 4, 6, 8, and 24 hours. Blood samples were prepared by protein precipitation with methanol or acetonitrile containing internal standard and then measured quantitative bioanalysis by LC-MS/MS.

Row | SMILES | activity and selectivity in cells, in words (IKKα) | selectivity for IKKα over IKKβ, in words (IKKα over IKKβ) | selectivity for IKKα over IKKβ (IKKα over IKKβ; ratio of Ki) | solubility, in words (Turbidimetric solubility) | in vitro murine clearance, in words (mouse hepatocytes) | Cmax ([1]; I.P.) | F ([1]; I.P.) | Terminal t1/2 ([1]; I.P.) | Tmax ([1]; I.P.) | Clearance ([1]; I.V.) | Terminal t1/2 ([1]; I.V.) | Vss ([1]; I.V.)
1 | Nc1n[nH]c2ccc(-c3ccnc4[nH]c(-c5cccc(OCc6ccccc6)c5)cc34)cc12 [5r SU1261, 5-(2-(3-(benzyloxy)phenyl)-1 H-pyrrolo[2,3-b]pyridin-4-yl)-1 H-indazol-3-amine] | activity and selectivity being recapitulated in cells |  |  |  |  |  |  |  |  |  |  | 
2 | Nc1n[nH]c2ccc(-c3ccnc4[nH]c(-c5ccnc(OCc6ccccc6)c5)cc34)cc12 [6g SU1349, 5-(2-(2-(Benzyloxy)pyridin-4-yl)-1 H-pyrrolo[2,3-b]pyridin-4-yl)-1 H-indazol-3-amine] |  | essential selectivity profile | 209 fold | most soluble in the series that displayed selectivity | sufficiently low in vitro murine clearance | 199 ng/mL | 9.3% | 3.02 h | 0.44 h | 16.7 mL/min/kg | 4.18 h | 0.39 L/kg

Reference: patent US20260315487A1, “IKK-ALPHA INHIBITORS” (Cancer Research Technology Limited, priority 2023, published 2026)
